Experimental findings from paper PMC5902495, “Synthesis of Symmetrical Tetrameric Conjugates of the Radiolanthanide Chelator DOTPI for Application in Endoradiotherapy by Means of Click Chemistry” (Frontiers in Chemistry, 2018) are described below.

The structures appear in SMILES notation.

The data set can be described thus: Protonation constants of ligands by pH-potentiometry. The class given is physicochemical. Particulars: 25°C, I = 0.15 M NaCl. From the text: For determining the protonation constants of DOTPI(Chx)4 and DOTPI three parallel pH-potentiometric titration were made with 0.2 M NaOH in 0.002 M ligand solutions. The stability and protonation constants of the Ca^II and Zn^II complexes formed with DOTPI(Chx)4 and DOTPI ligands have been determined by direct pH-potentiometric titration made at 1:1 and 2:1 metal to ligand concentration ratios. (the concentration of ligands was 0.002 M). For the calculation of the logKML and logKMLHi values, the mL base—pH data used were obtained in the pH range 1.7–12.0.
For pH measurements and titrations, a Metrohm 785 DMP Titrino titration workstation and a Metrohm-6.0233.100 combined electrode were used. Equilibrium measurements were carried out at a constant ionic strength (0.15 M NaCl) in 6 mL samples at 25°C. The solutions were stirred, and constantly purged with N2. The titrations were performed in a pH range of 1.7–11.7. KH-phthalate (pH = 4.005) and borax (pH = 9.177) buffers were used to calibrate the pH meter. For calculation of [H^+] from measured pH values, the method proposed by Irving et al. was used (Irving et al., [1967]). A 0.01 M HCl solution was titrated with the standardized NaOH solution in the presence of 0.1 M NaCl. Differences between the measured (pHread) and calculated pH (–log[H^+]) values were used to obtain the equilibrium H^+ concentration from the pH values, measured in the titration experiments. For the equilibrium calculations, the stoichiometric water ionic product (pKw) is also needed to calculate [H^+] values in basic conditions. The VNaOH – pHread data pairs of the HCl – NaOH titration obtained in the pH range 10.5–12 have been used to calculate the pKw value (pKw = 13.85). For the calculation of the equilibrium constants the program PSEQUAD (Zekany and Nagypal, [1985]) was used.
2. Protonation and complexation equilibria of DOTPI and
The protonation processes of the DOTPI and DOTPI(Chx)4, ligands have been studied by pH-potentiometry. The protonation constants (logKiH) of ligands are defined according to Eq. (1).
The stability and protonation constants of DOTPI and DOTPI(Chx)4 complexes with several metal ions were determined by pH-potentiometric and UV/Vis spectrophotometric, methods.
The stability and protonation constants of the metal complexes formed with the DOTPI and DOTPI(Chx)4, ligands, defined by Eqs. […]
where i = 1, 2, 3…5. The KML and KMHiL values characterizing the formation of DOTPI and DOTPI(Chx)4 complexes of CaII and ZnII have been calculated from the pH-potentiometric titration data obtained at 1:1 metal to ligand concentration ratios. The protonation constants of the complexes Cu(DOTPI) and Cu(DOTPI( Chx)4) were also determined by pH-potentiometric titrations, made at 1:1 metal to ligand concentration ratio. The pH-potentiometric titrations of DOTPI ligand were also performed at 2:1 metal-to-ligand ratio in order to examine the possible formation of dinuclear CaII-, ZnII-, and CuII-DOTPI complexes.
The stability and protonation constants of the dinuclear complexes formed with the DOTPI […]
where i=1 and 2. In calculating the equilibrium constants, the best fit of the mL base – pH data was obtained by assuming the formation of ML, MHL, MH 2L, MH3L, MH4L, MH5L, M2L, M2LH, and M2LH2 complexes with DOTPI and DOTPI(Chx)4.
(also on this page, place not known: ]H][LH[ ]LH[K 1i iH + − = DOTPI( Chx)4 f ormed ]L][M[ ]ML[K ML = ]H][LMH[ ]LMH[K 1i i LMHi + − = i 3 …5. Ca II Zn II -potentiometric pH - metal -to-ligand Cu II-DOTPI ]M][ML[ ]LM[K 2 LM2 = ]H][LHM[ ]LHM[K 1i2 i2 LHM i2 + − = pH MH 4L,) […]

Regarding `O=C(O)CCP(=O)(O)CN1CCN(CP(=O)(O)CCC(=O)O)CCN(CP(=O)(O)CCC(=O)O)CCN(CP(=O)(O)CCC(=O)O)CC1` [DOTPI, 1,4,7,10-tetraazacyclododecane-1,4,7,10-tetrakis[methylene(2-carboxyethylphosphinic acid)]], the “log K1H” value was 10.27 (1), the “log K2H” value was 8.42 (1), the “log K3H” value is 5.45 (2) and the “log K4H” value was 4.78 (2). The “log K5H” value is listed as 4.42 (2), the “log K6H” value is 3.88 (2), the “log K7H” value was 2.83 (2) and the “log K8H” value is listed as 1.17 (2). Further, the “Σlog KiH (total basicity)” value (distant carboxylate groups of DOTPI not considered) was 22.69.
